Experiments:
[1] = test system: sheath blight in rice; experiment: Field control of sheath blight in rice; assay type: in vivo, rice (Nanjing 9108); conditions: 3.0 mg/mu sprayed 3 times (0.100, 0.067, 0.067 ppm)
Description: A test sample was dissolved, diluted, thoroughly stirred, and then applied, with an application area of 3 mu for each treatment. Before harvesting, five-point sampling (20 m^2 per sampling point) was conducted for each treatment to determine the details of sheath blight in rice.

[2] = DTA/TG thermal analysis; assay type: physicochemical; conditions: nitrogen, 10° C./min, 25° C. to 500° C.
Description: Test instrument: Shimadzu DTG-60 DTA-TG synchronous analyzer.
Test samples: Sodium iron chlorin and iron chlorin.
Reference: Aluminum oxide.
Heating rate: 10° C./min.
Heating range: 25° C. to 500° C.
Sample weight: 4.3 mg to 4.5 mg.
Analysis software: ta60WS Ver. 2.11.
Results were shown in FIG. 1, including a DTA comparison chart (the upper part in FIG. 1) and a TG comparison chart (the lower part in FIG. 1) for the samples.

[3] = test system: mosaic virus; experiment: Controlling diseases in tobacco by spraying; assay type: in vivo, tobacco (Yunyan 87); conditions: 30 L/mu
Text: For each treatment, 4 plots relatively scattered were selected from the field, with each plot of 50 m^2. An agent was sprayed twice around May 28 and June 4 during a root-spreading stage (12 leaves to 14 leaves) after tobacco transplanting, respectively. A same spraying volume (30 L/mu) was adopted for each treatment. During the spraying operation, each leaf surface should be sprayed evenly without dead corners left.
On July 15, tobacco plants in all treatment plots were surveyed. An incidence grading survey was conducted according to the Grade and investigation method of tobacco diseases and insect pests GB/T23222-2008, and an incidence rate and a disease index were counted for each treatment plot.

[4] = test system: rice; experiment: Alleviation of herbicide damage in rice; assay type: in vivo, rice (Jinjing 818); conditions: 0.25 ppm
Description: Method: A treatment plot of 1.5 mu and a control plot of 1.5 mu were set. The sample was sprayed twice after the herbicide damage occurred in rice sprayed with a herbicide. Clear water was adopted as a blank control. Specific operations were as follows:
On June 20 when weeds had 3 leaves and rice had 3 to 3.5 leaves, the treatment plot and the control plot both were treated with 4% imazamox at 200 mL/mu and 10% pyribenzoxim at 40 mL/mu by a stem and leaf spray method, with 30 kg of water per mu. One week later, a weeding effect was prominent, but rice underwent obvious pesticide damage. 10 d after the herbicide application (June 30), the treatment plot was sprayed with the sample at 7.5 mg/mu by a stem and leaf spray method, with a solution of 30 L per mu. The control plot was sprayed with clear water. At an inflorescence emergence stage of rice (August 25), the spraying was conducted once again by the same method.

[5] = Dilution and pH determination for sample solutions; assay type: physicochemical
Description: Method: 0.2500 g of a sample was accurately weighed and added to a 25 mL volumetric flask, dissolved with purified water, and diluted to a specified scale to prepare a 1.00% (10,000.0 ppm) initial solution. The initial solution was diluted with purified water in different ratios to prepare a series of solutions with a concentration of 1,000.0 ppm to 0.1 ppm. A pH value of each sample was determined three times.

[6] = test system: leaf blast in rice; experiment: Field control of leaf blast in rice; assay type: in vivo, rice (Nanjing 9108); conditions: 3 mg/mu sprayed 3 times (0.1, 0.067, 0.067 ppm)
Description: The experiment was conducted according to experimental specifications in the field efficacy standard of GB/T17980.19-2000. In the experiment, the following two treatments were set: a first treatment: sodium iron chlorin was applied, and a second treatment: a blank control (water) was applied. A test sample was fully dissolved and diluted, and then applied. Based on the characteristics of disease and pest control, an agent was applied once at each of a late tillering stage (Jul. 22, 2021), a jointing-booting stage (Aug. 16, 2021), and a full heading stage (Aug. 30, 2021). […] Water amounts required per mu for the three times were 30 L, 45 L, and 45 L (sample concentrations: 0.1 ppm, 0.067 ppm, and 0.067 ppm), respectively. An area for each treatment was 3 mu. According to a five-point sampling method, 5 sampling points (20 m^2 per sampling point) were set for each treatment. The occurrence of leaf blast in rice was investigated in the field before harvesting.

[7] = Water solubility of the prepared salts; assay type: physicochemical
[8] = test system: Phytophthora capsici LT263; experiment: Inducing resistance of Nicotiana benthamiana leaves to phytophthora blight; assay type: in vivo; conditions: inoculated on day 7 and day 10, read 36 h after inoculation
Description: At 36 h after the inoculation, results were observed.

[9] = 7.5 mg/mu sprayed twice after imazamox/pyribenzoxim damage

For sodium iron chlorin [Example 21], which Corrected control [1] is on record?
Its Corrected control is 45.16%.

And the Disease index [1]?
Its Disease index is 21.61%.

What about the Diseased plant rate [1] of the same substance?
Its Diseased plant rate is 10.4%.

What about the “thermal stability compared with the acidic sample” value [2] of the same substance?
Its value is “significantly-stronger thermal stability”.

What about the Disease index ([3]; 0.05 ppm sprayed twice) of the same substance?
Its Disease index is 8.94.

What about the Relative control effect ([3]; 0.05 ppm sprayed twice) of the same substance?
The Relative control effect was 65.48%.

What about the Disease index ([3]; 0.10 ppm sprayed twice) of the same substance?
The Disease index was 8.77.

What about the Relative control effect ([3]; 0.10 ppm sprayed twice) of the same substance?
The Relative control effect was 66.13%.

What about the Disease index ([3]; 0.20 ppm sprayed twice) of the same substance?
The Disease index was 8.15.

What about the Relative control effect ([3]; 0.20 ppm sprayed twice) of the same substance?
The Relative control effect was 71.00%.

What about the Actual yield [4, 9] of the same substance?
Its Actual yield is 675 kg/mu.

What about the Ear number/mu [4, 9] of the same substance?
The Ear number/mu was 275945.5.

What about the Filled grain number/ear [4, 9] of the same substance?
The Filled grain number/ear was 97.64.

What about the Grain number/ear [4, 9] of the same substance?
The Grain number/ear was 104.5.

And the Seed set rate [4, 9]?
Its Seed set rate is 0.9344.

And the Theoretical yield [4, 9]?
The Theoretical yield was 816.8 kg/mu.

And the Thousand-grain weight [4, 9]?
The Thousand-grain weight was 30.30 g.

What about the “increase of yield per mu” value ([4]; 7.5 mg/mu sprayed twice, versus clear water) of the same substance?
The value was ≥ 22%.

What about the pH ([5]; 0.1 ppm in purified water) of the same substance?
The pH was “(6.79)”.

And the pH ([5]; 1.0 ppm in purified water)?
Its pH is “(6.89)”.

What about the pH ([5]; 10.0 ppm in purified water) of the same substance?
Its pH is “(7.23)”.

And the pH ([5]; 20.0 ppm in purified water)?
Its pH is “(7.42)”.

And the pH ([5]; 30.0 ppm in purified water)?
The pH was “(7.51)”.

And the pH ([5]; 100.0 ppm in purified water)?
The pH was “(8.34)”.

What about the pH ([5]; 1000.0 ppm in purified water) of the same substance?
Its pH is “(9.71)”.

What about the pH ([5]; 10000.0 ppm in purified water) of the same substance?
Its pH is “(10.41)”.

What about the Average disease index [6] of the same substance?
The Average disease index was 20.09%.

And the Average incidence rate [6]?
The Average incidence rate was 8.0%.

And the Corrected control effect [6]?
Its Corrected control effect is 43.93%.

And the solubility in water [7]?
Its solubility in water is “easily soluble”.

And the “lesion area after LT263 inoculation compared with DDW” value ([8]; 2.0 ppm injected into leaves)?
The value was “significantly reduce a lesion area”.

What about the “lesion area after LT263 inoculation compared with DDW” value ([8]; 20.0 ppm injected into leaves) of the same substance?
Its value is “significantly reduce a lesion area”.

Source: patent publication US20260123631A1, “NATURAL PORPHIN SALT AND USE THEREOF AS PLANT GROWTH REGULATOR AND PLANT IMMUNITY INDUCER” (NANJING BOSTEC BIOLOGICAL ENGINEERING CO., LTD, priority 2022, published 2026)
